Experimental data taken from ChEMBL document CHEMBL4017479, “Design, synthesis and anticancer activity of novel nopinone-based thiosemicarbazone derivatives” (Bioorg Med Chem Lett, 2017).

Legend:
SMMC-7721 = test: Cytotoxicity against human SMMC7721 cells after 72 hrs by MTT assay; type: functional, cell-based; details: SMMC-7721, 72 h
[1] = Cytotoxicity against HLF1 cells after 72 hrs by MTT assay; type: functional, cell-based; details: Homo sapiens, HLF1, 72 h
MDA-MB-231 = test: cells; details: Homo sapiens, MDA-MB-231, 72 h
Description: Cytotoxicity against human MDA-MB-231 cells after 72 hrs by MTT assay

HeLa = test: cells; details: Homo sapiens, 72 h
Description: Cytotoxicity against human HeLa cells after 72 hrs by MTT assay

IC50 (MDA-MB-231): 29.3 µM
IC50 (HeLa): 7.89 µM
Structure (SMILES): COc1cc([C@@H]2c3cc4c(cc3[C@@H](O[C@@H]3O[C@@H]5CO[C@@H](C)O[C@H]5[C@H](O)[C@H]3O)[C@H]3COC(=O)[C@H]23)OCO4)cc(OC)c1O [ETOPOSIDE]
IC50 (SMMC-7721): 40.4 µM
IC50 [1]: > 40 µM
